Consider 14 compounds from patent publication US8791155B2, “Chroman derivatives” (Edison Pharmaceuticals, Inc., priority 2003, dated 2014).

Molecules are shown by their SMILES. Some results are limits rather than exact numbers.

The first test deals with T1, human recombinant 5-lipoxygenase (Homo sapiens, UniProt P09917).
T1 construct: purchased Cayman 60402
T1 sequence (P09917 1-674): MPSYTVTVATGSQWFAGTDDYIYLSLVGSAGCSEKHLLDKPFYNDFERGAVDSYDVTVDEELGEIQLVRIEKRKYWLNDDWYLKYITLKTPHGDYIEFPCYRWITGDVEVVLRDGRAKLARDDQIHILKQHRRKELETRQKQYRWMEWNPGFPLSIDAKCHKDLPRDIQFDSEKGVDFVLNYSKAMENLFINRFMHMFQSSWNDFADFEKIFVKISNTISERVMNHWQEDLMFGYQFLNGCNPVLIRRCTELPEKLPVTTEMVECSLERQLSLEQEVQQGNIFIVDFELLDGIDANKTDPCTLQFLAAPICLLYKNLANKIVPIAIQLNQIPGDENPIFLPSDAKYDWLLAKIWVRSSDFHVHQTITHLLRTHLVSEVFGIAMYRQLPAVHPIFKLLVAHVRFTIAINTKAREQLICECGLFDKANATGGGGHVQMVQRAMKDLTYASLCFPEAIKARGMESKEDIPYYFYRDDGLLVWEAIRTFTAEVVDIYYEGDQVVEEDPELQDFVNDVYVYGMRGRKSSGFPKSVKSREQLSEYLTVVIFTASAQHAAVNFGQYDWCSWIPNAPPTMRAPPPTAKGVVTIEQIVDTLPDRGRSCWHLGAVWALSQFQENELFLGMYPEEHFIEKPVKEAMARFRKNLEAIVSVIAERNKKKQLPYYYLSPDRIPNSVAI
In words: 5-Lipoxygenase enzyme assay. It is filed as biochemical. To be noted: 70 μM arachidonic acid, pH 7.4, 10 minute incubation; read-out: IC50, inhibition of 5-Lipoxygenase. An excerpt: (§1) In vitro evaluation of the ability of a composition to inhibit the enzymes 5-lipoxygenase, 15-lipoxygenase, or 12/15 lipoxygenase as described in Walidge, N. B. et al Anal. Biochem., 231: 354-358 (1995) using a high throughput colorimetric method; as well as in vitro evaluation of inhibiting LTB4 is described in Examples.
This procedure was used for measuring the enzymatic activity of human recombinant 5-lipoxygenase using a colorimetric method based on the ferric oxidation of xylenol orange.
• 96 well flat bottom microfilter plates (VWR, Catalog #62402-933 9295) • Lipoxygenase screening assay buffer (Cayman, Catalog #760710) • Human recombinant 5-lipoxygenase (Cayman, Catalog #60402) • Arachidonic Acid (Sigma, Catalog #A3555) • Xylenol orange tetrasodium salt (Aldrich, Catalog #227854) • Iron (II) sulfate heptahydrate (Sigma, Catalog #F7002) • Sulfuric acid (95-98%) [18M]—Methanol Procedure
(§2) Human recombinant 5-lipoxygenase (Cayman Cat #60402) was used in this assay. The test compound and/or vehicle was added to 0.51-1 5-lipoxygenase in 50 mM Tris-HCl buffer, pH 7.4. The reaction was initiated by addition of 70 μM arachidonic acid in Tris-HCl buffer, pH 7.4, and terminated after a 10 minute incubation at room temperature by addition of FOX reagent (25 mM sulphuric acid, 100 μM xylenol orange, 100 μM iron (II) sulphate, methanol:water 9:1). The yellow color of acidified xylenol orange was converted to a blue color by the lipid hydroperoxide-mediated oxidation of Fe 2+ ions and the interaction of the resulting Fe 3+ ions with the dye. The complex was allowed to form during a 1 hour incubation at room temperature with shaking. Absorbance of the Fe 3+ complex was then measured at […] using a spectrophotometer.
(§3) Negative controls contained enzyme during the incubation step but substrate was not added until after the FOX reagent.
Compounds were screened at 5 concentrations in triplicate starting at 10 μM
On to `COc1cc(-c2c(O)c(C)c(C)c3c2CCC(C)(C)O3)cc(OC)c1OC` [2,2,7,8-Tetramethyl-5-(3,4,5-trimethoxy-phenyl)-chroman-6-ol], for which the IC50 is below 1 µM.

With `Cc1c(C)c2c(c(-c3ccc(Cl)cc3)c1O)CCC(C)(C)O2` [5-(4-Chloro-phenyl)-2,2,7,8-tetramethyl-chroman-6-ol], the IC50 is below 1 µM.

In the case of `Cc1c(C)c2c(c(-c3ccc(C(C)(C)C)cc3)c1O)CCC(C)(C)O2` [5-(4-tert-Butyl-phenyl)-2,2,7,8-tetramethyl-chroman-6-ol], the IC50 was below 1 µM.

Consider `Cc1c(O)cc(-c2c(O)c(C)c(C)c3c2CCC(C)(C)O3)c(O)c1C` [5-(6-Hydroxy-2,2,7,8-tetramethyl-chroman-5-yl)-2,3-dimethyl-benzene-1,4-diol], for which the IC50 was below 1 µM.

The target in another test is T2, porcine leukocyte 12/15-lipoxygenase (Sus scrofa, UniProt P16469).
T2 construct: purchased Cayman 60300
T2 sequence (P16469 1-663): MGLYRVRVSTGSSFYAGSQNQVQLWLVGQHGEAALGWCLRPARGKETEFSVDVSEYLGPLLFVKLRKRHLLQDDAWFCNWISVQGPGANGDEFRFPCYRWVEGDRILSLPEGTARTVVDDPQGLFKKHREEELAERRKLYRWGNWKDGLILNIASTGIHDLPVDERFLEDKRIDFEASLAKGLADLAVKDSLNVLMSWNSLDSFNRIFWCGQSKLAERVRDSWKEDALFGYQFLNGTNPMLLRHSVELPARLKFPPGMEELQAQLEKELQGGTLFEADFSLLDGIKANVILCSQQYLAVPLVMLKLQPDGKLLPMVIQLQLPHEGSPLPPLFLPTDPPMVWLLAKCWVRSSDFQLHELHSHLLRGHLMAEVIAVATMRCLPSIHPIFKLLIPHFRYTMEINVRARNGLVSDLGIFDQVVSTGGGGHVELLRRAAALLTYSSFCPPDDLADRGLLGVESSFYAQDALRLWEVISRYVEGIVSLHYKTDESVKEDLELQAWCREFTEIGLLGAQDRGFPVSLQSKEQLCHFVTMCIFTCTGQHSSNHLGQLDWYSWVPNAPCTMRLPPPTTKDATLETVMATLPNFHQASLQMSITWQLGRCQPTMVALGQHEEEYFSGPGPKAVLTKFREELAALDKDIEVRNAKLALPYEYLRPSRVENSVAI
In words: 12/15-Lipoxygenase enzyme assay. Format: biochemical. Particulars: 70 μM arachidonic acid, pH 7.4, 10 minute incubation; read-out: IC50, inhibition of 12/15-Lipoxygenase.
From the text: as §1
This procedure was used for measuring the enzymatic activity of porcine leukocyte 12/15-lipoxygenase using a colorimetric method based on the ferric oxidation of xylenol orange.
• 96 well flat bottom microfilter plates (VWR, Catalog #62402-933 9295) • Lipoxygenase screening assay buffer (Cayman, Catalog #760710) • Porcine leukocyte 12/15-lipoxygenase (Cayman, Catalog #60300) • Arachidonic Acid (Sigma, Catalog #A3555) • Xylenol orange tetrasodium salt (Aldrich, Catalog #227854) • Iron (II) sulfate heptahydrate (Sigma, Catalog #F7002) • Sulfuric acid (95-98%) [18M] • Methanol Procedure
as §2, with “Porcine Leukocyte 12/15-lipoxygenase” for “Human recombinant 5-lipoxygenase”, “#60300)” for “#60402)”, “Test” for “The test”, “1.3 U 12/15-lipoxygenase” for “0.51-1 5-lipoxygenase”
as §3
Compounds are screened at 5 concentrations in triplicate starting at 10 μM
In the case of `Cc1c(C)c2c(c(Cl)c1O)CCC(C)(c1cccs1)O2` (centres unmarked) [5-Chloro-2,7,8-trimethyl-2-thiophen-2-yl-chroman-6-ol], the IC50 is below 1 µM.

Take `Cc1cc2c(c(C)c1O)CCC(CCCCl)(c1cccs1)O2` (centres unmarked) [2-(3-Chloro-propyl)-5,7-dimethyl-2-thiophen-2-yl-chroman-6-ol]: the IC50 was below 1 µM.

As to `CC(=CCc1c(O)c(C)c(C)c2c1CCC(C)(C)O2)CCCl` [5-(5-Chloro-3-methyl-pent-2-enyl)-2,2,7,8-tetramethyl-chroman-6-ol], the IC50 is below 1 µM.

`Cc1cc(C2(C)CCc3c(C)c(O)c(C)c(Cl)c3O2)c(C)s1` (centres unmarked) [8-Chloro-2-(2,5-dimethyl-thiophen-3-yl)-2,5,7-trimethyl-chroman-6-ol]: the IC50 is below 1 µM.

The next test deals with dopaminergic neuronal cell line. Put plainly: High glutamate-induced oxidative stress assay (HGOS). It is filed as cell-based. Particulars: Mus musculus; 30 mM glutamate, 16 hrs; read-out: EC50, protection against HGOS cell injury and cell death. An excerpt:
Protection against redox stress can be evaluated in cell culture using high glutamate induced oxidative stress (HGOS) in mouse dopaminergic cell lines. The cytotoxic effect of glutamate is not due to excitotoxicity, as this cell line is devoid of inotropic glutamate receptors. Rather, the glutamate-induced toxicity of dopaminergic cells is associated with an inhibition of cystine transport which subsequently leads to depletion of intracellular glutathione (GSH) levels (Murphy T. H., et al. Neuron 2, 1547-1558, 1989), activation of neuronal 12-lipoxygenase (Li, Y. et al., Neuron 19, 453-463, 1997), increased ROS production (Tan S. et al., J. Cell Biol. 141, 1423-1432, 1998) and elevated intracellular Cat^2+ (Li, Y. et al., see supra). Some molecules were measured for their ability to protect cells against glutamate-induced stress and the assay is detailed in Examples.
This procedure was used to induce high glutamate-induced oxidative stress (HGOS) in a dopaminergic neuronal cell line. Using this assay the potency and efficacy of test articles against HGOS neuronal cell injury and cell death was established in a high throughput manner.
• Dopaminergic neuronal cell lines • DMEM-No Glucose (Life Technologies Cat #11966-025) • L-glutamine (Life Technologies Cat #25030-081) • L-glutamic acid, monosodium salt (Sigma Cat #G5889) • D-glucose (Sigma Cat #G-6151) • 10×HBSS buffer (pH 7.4) (950 ml Pyrogen-free water, 2.44 g/L MgCl2.6H20, 3.73 g/L KCl, 59.58 g/L Hepes, 58.44 g/L NaCl, 1.36 g/L KH2PO4, 1.91 g/L CaCl2.2H2O and pH to […] with HCl) • Cell Tracker Green fluorescent dye (Molecular Probes, Cat #2925). Prepare a 5NM solution in pre-warmed HBSS just prior to use. • Sterile 96-well plates precoated with poly-D-lysine (Corning Catalog #3665) • 96-well deep well mother plate, DyNA Block 1000 (VWR Catalog #40002-008) Neuronal Cells
The cells were seeded into 96-well plates at a density of 2000 per well and left to grow for 72 hours in a 33° C. incubator with 5% CO2 in air atmosphere. The passage number of the cells for each assay experiment were no later than p11 in order to minimize experimental variation.
All compounds were dissolved in DMEM-No Glu containing 1 mM glucose, 30 mM glutamate and 1× Pen/Strep. DMEM-No Glu with 1 mM glucose and 1× P/S was used as the negative control, DMEM-No Glucose with 1 mM glucose, […] glutamate was used as a positive control and 100 NM Glutathione was added to the positive control as a standard. All of the procedures for this involving the making and dilution of compounds were performed using aseptic conditions and with minimal light.
The plates were removed from the incubator and examined under the microscope for morphological appearance and density. Using an aseptic technique and an 8-channel aspirator the media was carefully removed from the cells and replaced with 200 μI of 1×HBSS. This was done as quickly as possible to prevent the cells drying out. The plates were then placed in the humidified 37° C. incubators of the Biomek 2000 Side Loader. Four plates were washed at a time so as to minimize the time that the cells were sitting in 1×HBSS prior to addition of the compound test solution. Experimental Setup
The Beckman Biomek workstations were used to load the compounds and controls from the mother plates onto the cell plates that were prewashed with HBSS under sterile conditions. The plates were incubated in the upper HTS incubator at 37° C. in 5% CO2 for exactly 16 hrs. The following day, using the Beckman Biomek workstations, the plates were removed from the incubator. Using Cell Tracker Addition, the compounds were removed from the plates, washed once with […] of pre-warmed 1×HBSS and then 100 μL of 5 μM Cell Tracker Green was added to each well. The plates were incubated at 37° C. for 30 min to allow the dye to enter the cell and be cleaved by the esterases. […]
As to `COCOc1cc2c(c(C)c1C)OC(C)(CCC=C1SC(=O)NC1=O)CC2` (centres unmarked) [5-[3-(6-Methoxymethoxy-2,7,8-trimethyl-chroman-2-yl)-propylidene]-thiazolidine-2,4-dione], the half-maximal effective concentration (EC50) was below 5 µM.

In the case of `Cc1c(C)c2c(c(-c3ccc(N(C)C)cc3)c1O)CCC(C)(C)O2` [5-(4-Dimethylamino-phenyl)-2,2,7,8-tetramethyl-chroman-6-ol], the EC50 is below 5 µM.

Take `Cc1c(C)c2c(c(-c3ccccc3)c1O)CCC(C)(C)O2` [2,2,7,8-Tetramethyl-5-phenyl-chroman-6-ol]: the EC50 is below 5 µM.

As to `CCCC1=NN(C)C(=O)C1=Cc1c(O)c(C)c(C)c2c1CCC(C)(C)O2` [4-(6-Hydroxy-2,2,7,8-tetramethyl-chroman-5-ylmethylene)-2-methyl-5-propyl-2,4-dihydro-pyrazol-3-one], the EC50 is below 5 µM.

Turning to `Cc1c(C)c2c(c(-c3ccncc3)c1O)CCC(C)(C)O2` [2,2,7,8-Tetramethyl-5-pyridin-4-yl-chroman-6-ol], the EC50 was below 5 µM.

Take `Cc1c(C)c2c(c(-c3ccc(S(C)(=O)=O)cc3)c1O)CCC(C)(C)O2` [5-(4-Methanesulfonyl-phenyl)-2,2,7,8-tetramethyl-chroman-6-ol]: the concentration for a half-maximal effect (EC50) was below 5 µM.

Broadly, the EC50 is the midpoint of the concentration-response curve.
